Test results reported in PubChem BioAssay (NCI).
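1) Cells in 96-well plates. 2) Compound, 48 h, 5 concentrations. 3) Linear interpolation between surrounding doses. 4) Unreached endpoint = highest concentration. The concentration for full growth arrest is given as TGI.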

Tests used:
Test in all cases: inhibition of tumour cell growth, NCI panel, 48 h
[1] = system: U251 CNS
[2] = system: UO-31 renal
[3] = system: MCF7 breast
[4] = system: OVCAR-5 ovarian
[5] = system: ACHN renal
[6] = system: SF-295 CNS
[7] = system: NCI-H522 lung
[8] = system: RPMI-8226 leukemia
[9] = system: SK-MEL-28 melanoma
[10] = system: CAKI-1 renal
[11] = system: OVCAR-3 ovarian
[12] = system: KM12 colon
[13] = system: OVCAR-8 ovarian
[14] = system: SK-MEL-2 melanoma

| Structure (SMILES) | TGI [1] [µM] | TGI [2] [µM] | TGI [3] [µM] | TGI [4] [µM] | TGI [5] [µM] | TGI [6] [µM] | TGI [7] [µM] | TGI [8] [µM] | TGI [9] [µM] | TGI [10] [µM] | TGI [11] [µM] | TGI [12] [µM] | TGI [13] [µM] | TGI [14] [µM] |
| --- | --- | --- | --- | --- | --- | --- | --- | --- | --- | --- | --- | --- | --- | --- |
| COc1ccc2c(c1)-c1c(c3ccccc3n1CCN1CCCCC1)CC2 | 56.7 | 30 | > 80.8 | > 57.2 | > 100 | 34.4 | 28.6 | 36.3 | 99.2 | > 75.2 | 26.1 | > 56.9 | > 55.3 | 16.7 |
| O=c1c2cc([N+](=O)[O-])cnc2sn1-c1ccc(Oc2ccccc2)cc1 | > 100 | > 100 | > 100 | > 100 | > 100 | > 100 | 34.1 | > 100 | > 100 | – | > 100 | > 100 | > 100 | > 100 |
| CSC1=N/C(=C\c2ccc(Cl)cc2)C(=O)N1CN1CCOCC1 | > 100 | > 100 | > 100 | > 100 | > 100 | > 100 | > 100 | > 100 | > 100 | – | > 100 | > 100 | 61.6 | > 100 |
| COCC1OCCN1C (stereo not given) | > 100 | > 100 | > 100 | > 100 | > 100 | > 100 | > 100 | > 100 | – | > 100 | > 100 | > 100 | > 100 | > 100 |
| C=C1[C@H](OCC(C)C)[C@@H](OCC(C)C)[C@@H](O)C(C)(C)/C=C/[C@H](C)C(=O)[C@@]2(O)C[C@H](C)[C@H](O)[C@@H]2[C@H]1OCC(C)C | > 7.5 | > 7.5 | > 7.5 | > 7.5 | > 7.5 | > 7.5 | > 7.5 | – | – | > 7.5 | > 7.5 | > 7.5 | > 7.5 | > 7.5 |
| Cc1cc(Cl)ccc1NC(=O)/C(CC(=O)CC(c1ccccc1)c1c(O)c2ccccc2oc1=O)=N\O (stereo not given) | > 100 | > 100 | > 100 | > 100 | > 100 | > 100 | > 100 | – | > 100 | > 100 | > 100 | > 100 | > 100 | > 100 |
| COc1ccc(OC)c2c(=O)cc(-c3ccccc3)[nH]c12 | > 100 | > 100 | > 100 | > 100 | > 100 | > 100 | > 100 | > 100 | > 100 | – | > 100 | > 100 | > 100 | > 100 |
| CCCN(CCC)C(=S)N/N=C/c1cccc(C)n1 | > 100 | 12.2 | 0.67 | 47.2 | 0.821 | 7.53 | 2.51 | 0.546 | 91.3 | 4.65 | – | 12.4 | 0.729 | 26.4 |
| Cc1ccc(-c2cnc(NC3OC(COC(=O)c4ccccc4)C(OC(=O)c4ccccc4)C(OC(=O)c4ccccc4)C3OC(=O)c3ccccc3)s2)cc1 (stereo not given) | > 100 | > 100 | > 100 | > 100 | > 100 | > 100 | > 100 | > 100 | > 100 | – | > 100 | – | > 100 | > 100 |
| O=S(=O)([N-]c1nc2ccccc2nc1-[n+]1ccccc1)c1ccccc1 | – | > 100 | > 100 | > 100 | > 100 | > 100 | > 100 | > 100 | – | > 100 | > 100 | > 100 | > 100 | > 100 |
| CCOC(=O)C1C(C(C)C)C2(C#N)C(=N)OC1(C)C2(C#N)C#N (stereo not given) | > 100 | > 100 | > 100 | > 100 | > 100 | > 100 | > 100 | > 100 | > 100 | 23 | – | > 100 | > 100 | > 100 |
| c1ccc2c(c1)n1c(N3CCOCC3)[n+]3ccccc3c1c1c3cccc[n+]3c(N3CCOCC3)n21 | > 100 | – | > 100 | > 100 | > 100 | > 100 | > 100 | > 100 | > 100 | > 100 | > 100 | > 100 | > 100 | > 100 |
| COc1ccccc1NC(=S)Nc1cccc(C)n1 | > 100 | > 100 | > 100 | > 100 | – | > 100 | 45.9 | > 100 | > 100 | > 100 | > 100 | > 100 | > 100 | > 100 |
| Cn1c(=S)[nH]c2c(Cl)cc(Cl)cc2c1=O | > 100 | > 100 | > 100 | > 100 | > 100 | > 100 | > 100 | – | > 100 | > 100 | > 100 | > 100 | > 100 | > 100 |
